Assay results: patent publication US10532988B2, “Crystalline forms of neurotrophin mimetic compounds and their salts” (PharmatrophiX, Inc., priority 2009, dated 2020)
Counter-ions that a name gives are not always drawn. Like-named read-outs stand apart in the source and are kept apart here.

Key:
[1] = Stability study of salts and free base under stress, HPLC total area normalization; type: physicochemical
Protocol: The scaled up salts and free base were challenged by heat (solids stored at 25 and 60° C. for 1 week), oxidation (solids stored in oxygen headspace at 25° C. for 1 week), light (solids exposed to ≥1×ICH UV confirmatory conditions), and solutions (HPLC diluent) at 25 and 40° C. for 1 week. These samples were analyzed, along with unstressed controls, by HPLC to characterize their stability.
Crystalline forms (i.e., salts and free base) of the present invention were analyzed by total area normalization (TAN). The samples were dissolved in 1:1 Acetonitrile (ACN):Water (H2O) at a concentration of 0.5 mg/mL.
Stressed samples were analyzed using HPLC to determine their impurity profiles.
The stability results shown in Table 10 represent the averages of two injections of duplicate sample preparations.

[2] = Solubility in water (incremental solvent addition, visual observation); settings: for solubility: thermodynamic from solid
Protocol: Milligram size quantities of each sample were placed into a vial. Water was added and the vials were stirred for a few minutes, followed by visual observation for remaining solids. The solvent was incrementally added until the solids were dissolved, or a maximum volume of solvent was added and the experiment was terminated.

[3] = Pharmacokinetic study of salt forms in rat plasma and brain after oral gavage; type: in vivo; settings: for AUC%Extrap / Maximum Brain Level / Kp at 8 h / AUC / AUC(0-inf) / half-life / Cmax / Tmax / AUCINF / AUCall / T1/2 / Brain:Plasma Ratio: male rats, single 25 mg/kg free base by oral gavage; for Maximum Brain Level / Kp at 8 h / Brain:Plasma Ratio: brain at 1, 3 and 8 hours; for Kp at 8 h: brain and plasma, read-out: Brain:Plasma Ratio
Protocol: The objective of this study was to provide preliminary pharmacokinetic information regarding the exposure of different salt forms of LM11A-31 in rat plasma and brain when dosed by oral gavage. Groups consisting of nine male rats received single doses of 25 mg/kg free base by oral gavage. Plasma samples were obtained from three rats per timepoint after administration (0.5, 1, 2, 3, 4, and 8 hours) and brain samples were collected at 1-, 3-, and 8-hour terminations (three rats per time point).
The samples were analyzed by LC-MS/MS to determine the plasma and brain concentrations of the test article. Pharmacokinetic analysis of the plasma concentration data was conducted using noncompartmental analysis with WinNonlin Version 4.1.

[4] = Hygroscopicity - dynamic vapor sorption (DVS); type: physicochemical; settings: for RH up to which the sample did not adsorb much moisture (rapid sorption above): DVS sorption phase from 0% RH; for moisture sorption at 90% RH / moisture sorption at 95% RH: 25° C.; for mass greater than the original value at 0% RH after desorption: DVS desorption phase, end at 0% RH
Protocol: Hygroscopicity—Dynamic Vapor Sorption (DVS):
Samples were analyzed using an automated dynamic vapor sorption analyzer. The sample (about 1-10 mg) was dried in the instrument 0% RH for 6 hours.

[5] = Stability study, qualitative proton NMR of stressed samples; type: physicochemical; settings: heat stress (solids stored at 60° C.)
Protocol: To confirm the little or no degradation observed in the HPLC stability study, some samples (solids stored at 60° C. and oxidation) of four of the salts and free base were further analyzed by proton NMR (i.e., HNMR). The analysis was qualitative.

[6] = Oxidation Ambient (oxygen headspace, 25° C., 1 week)
[7] = Photo Stability - Exposed (UV, ICH confirmatory conditions)
[8] = Solution (water and acetonitrile 1:1) - 40 C., 1 week
[9] = Solution (water and acetonitrile 1:1) - Ambient, 1 week

Compound | HPLC Total Area Normalization - Area % Purity [1, 6] [Area %] | HPLC Total Area Normalization - Area % Purity ([1]; Photo Stability - Dark Control) [Area %] | HPLC Total Area Normalization - Area % Purity [1, 7] [Area %] | HPLC Total Area Normalization - Area % Purity ([1]; Solid State - Ambient, 1 week) [Area %] | HPLC Total Area Normalization - Area % Purity [1, 8] [Area %] | solubility [2] [mg/mL] | AUC%Extrap ([3]; plasma) [%] | Maximum Brain Level [3] [ng/g tissue] | RH up to which the sample did not adsorb much moisture (rapid sorption above) [4] | overall hygroscopicity (in words) ([4]; DVS) | moisture sorption at 95% RH ([4]; DVS sorption phase) [wt %] | mass greater than the original value at 0% RH after desorption [4] | HPLC Total Area Normalization - Area % Purity ([1]; Solid State - 60 C., 1 week) [Area %] | HPLC Total Area Normalization - Area % Purity [1, 9] [Area %] | AUCINF ([3]; plasma) [ng·h/mL] | AUCall ([3]; plasma) [ng·h/mL] | Cmax ([3]; plasma) [ng/mL] | T1/2 ([3]; plasma) [min] | Tmax ([3]; plasma) [min] | other results
2-amino-3-methyl-N-(2-morpholinoethyl)-pentanamide Monoedisylate | 99.95 | 99.97 | 99.86 | 99.79 | 99.90 |  | 1.52 | 98 | 80 % RH |  |  |  | 99.95 | 999.81 | 243 | 247 | 284 | 42.5 | 30 | crude solubility in water [2]: ≤ 14 mg/mL; Brain:Plasma Ratio [3]: 1.4-3.3; moisture sorption at 90% RH ([4]; DVS sorption phase): 85 wt %
CCC(C)C(N)C(=O)NCCN1CCOCC1.CS(=O)(=O)O.CS(=O)(=O)O (centres unmarked) [Dimesylate, 2-amino-3-methyl-N-(2-morpholinoethyl)-pentanamide Dimesylate] |  |  |  |  |  | ≥ 28 |  |  | 55 % RH |  | 110 | about 3 wt % |  |  |  |  |  |  |  | 
2-amino-3-methyl-N-(2-morpholinoethyl)-pentanamide Digluconate |  |  |  |  |  |  |  |  | 45 % RH |  | 110 | about 4 wt % |  |  |  |  |  |  |  | 
2-amino-3-methyl-N-(2-morpholinoethyl)-pentanamide Disulfate | 99.97 | 99.97 | 99.94 | 99.98 | 99.75 |  | 5.26 | 77 | 60 % RH |  | 140 | about 4 wt % | 99.98 | 99.90 | 410 | 416 | 413 | 66 | 30 | solubility in water ([2]; ambient temperature): > 3; Brain:Plasma Ratio [3]: 0.6-1.8; overall PK properties compared with the free base ([3]; rat, oral gavage): better PK properties than the free base; exposure (AUC and Cmax) compared with the free base ([3]; rat, oral gavage, plasma): higher exposure

Now from value to compound, other results behind:

HPLC Total Area Normalization - Area % Purity [1, 6] [Area %] | HPLC Total Area Normalization - Area % Purity ([1]; Photo Stability - Dark Control) [Area %] | HPLC Total Area Normalization - Area % Purity [1, 7] [Area %] | HPLC Total Area Normalization - Area % Purity ([1]; Solid State - Ambient, 1 week) [Area %] | HPLC Total Area Normalization - Area % Purity [1, 8] [Area %] | solubility [2] [mg/mL] | AUC%Extrap ([3]; plasma) [%] | Maximum Brain Level [3] [ng/g tissue] | RH up to which the sample did not adsorb much moisture (rapid sorption above) [4] | overall hygroscopicity (in words) ([4]; DVS) | moisture sorption at 95% RH ([4]; DVS sorption phase) [wt %] | mass greater than the original value at 0% RH after desorption [4] | Compound | HPLC Total Area Normalization - Area % Purity ([1]; Solid State - 60 C., 1 week) [Area %] | HPLC Total Area Normalization - Area % Purity [1, 9] [Area %] | AUCINF ([3]; plasma) [ng·h/mL] | AUCall ([3]; plasma) [ng·h/mL] | Cmax ([3]; plasma) [ng/mL] | T1/2 ([3]; plasma) [min] | Tmax ([3]; plasma) [min] | other results
99.92 | 99.94 | 99.93 | 99.82 | 99.91 | 0.5 to 0.7 | 1.45 | 120 | 80 % RH |  |  |  | CCC(C)C(N)C(=O)NCCN1CCOCC1.Cc1ccc(S(=O)(=O)O)cc1.Cc1ccc(S(=O)(=O)O)cc1 (centres unmarked) [Ditosylate, 2-amino-3-methyl-N-(2-morpholinoethyl)-pentanamide Ditosylate] | 99.94 | 99.89 |  |  |  |  |  | Kp at 8 h ([3]; rat): 1 to 5.7; AUC ([3]; rat, plasma): 295 ng·h/mL; AUC(0-inf) ([3]; rat, plasma): 290 ng·h/mL; half-life ([3]; rat, plasma): 37.8 min; Cmax ([3]; rat, plasma, read-out: Cmax): 296 ng/mL; Tmax ([3]; rat, plasma, read-out: Tmax): 30 min; moisture sorption at 90% RH ([4]; DVS sorption phase): 30 wt %
 |  |  |  |  |  |  |  | 50 % RH | did not take up much water | 1.5 |  | CCC(C)C(N)C(=O)NCCN1CCOCC1.O=C(O)C(=O)O (centres unmarked) [Monooxalate, 2-amino-3-methyl-N-(2-morpholinoethyl)-pentanamide Monooxalate] |  |  |  |  |  |  |  | 
99.97 | 99.97 | 99.98 | 100 | 99.89 | > 30 | 4.81 | 105 | 45 % RH |  | 96 | original weight | CC[C@H](C)[C@H](N)C(=O)NCCN1CCOCC1 (stereo in doubt) [Free base, 2-amino-3-methyl-N-(2-morpholinoethyl)-pentanamide] |  |  |  |  |  |  |  | degradation after heat stress by proton NMR [5]: slight degradation; Kp at 8 h ([3]; rat): 2 to 3.5; AUC ([3]; rat, plasma): 321 ng·h/mL; AUC(0-inf) ([3]; rat, plasma): 316 ng·h/mL; half-life ([3]; rat, plasma): 63 min; Cmax ([3]; rat, plasma, read-out: Cmax): 371 ng/mL; Tmax ([3]; rat, plasma, read-out: Tmax): 30 min; moisture adsorbed from 45% to 50% RH ([4]; DVS sorption phase, 45% to 50% RH): ~10 wt %
99.81 | 99.85 | 99.82 | 99.90 | 99.96 |  | 3.44 | 123 | about 80 % RH | did not appear deliquescent |  |  | CCC(C)C(N)C(=O)NCCN1CCOCC1.O=S(=O)(O)c1ccc2ccccc2c1.O=S(=O)(O)c1ccc2ccccc2c1 (centres unmarked) [Dinapsylate, 2-amino-3-methyl-N-(2-morpholinoethyl)-pentanamide Dinapsylate] | 99.87 | 99.87 | 280 | 270 | 335 | 114 | 30 | overall PK properties compared with the free base ([3]; rat, oral gavage): better PK properties than the free base; terminal plasma half-life compared with the free base ([3]; rat, oral gavage, plasma): longer terminal plasma half-life; water taken up at high humidity ([4]; DVS, high humidity, no equilibrium at the highest humidity): 3 to 4 wt %
 |  |  |  |  | > 30 |  |  | 20 % RH | quite hygroscopic | 140 | about 5 wt % | CCC(C)C(N)C(=O)NCCN1CCOCC1 (centres unmarked) [di-HCl salt, 2-amino-3-methyl-N-(2-morpholinoethyl)-pentanamide] |  |  |  |  |  |  |  | 
